Source: PMC11323243, “Novel Inhibitors of SARS-CoV-2 RNA Identified through Virtual Screening” (Journal of Chemical Information and Modeling, 2024)
Entries after “also recorded” stand apart in the source; their conditions may differ.

The molecules below were run on Omicron (BA.1) SARS-CoV-2 (assay: Antiviral activity, plaque reduction assay on Vero E6 cells). Settings: not given.
Assay type: cell-based
In the case of `OCC1CN(Cc2cc3c(cc2Cl)OCO3)CC1CN1CCCCCC1` (centres unmarked) [Compound 269], the “antiviral activity against SARS-CoV-2 (in words)” value (“antiviral activity” for short) is reported as “retained activity against the wild-type virus albeit with reduced potency”. `Cc1cc2c(cc1CN1CC(CO)C(CN3CCOCC3)C1)OCCO2` (centres unmarked) [Compound 325] was tested, and the “antiviral activity” value was “did not inhibit wild-type virus; also recorded: loss of antiviral activity against SARS-CoV-2”. `OCC1CN(Cc2cc3c(cc2Cl)OCO3)CC1CN1CCOCC1` (centres unmarked) [Compound 178] was tested, and the “antiviral activity” value was “decrease in potency”.

Same assay, conditions: Severe acute respiratory syndrome coronavirus 2, Vero C1008, 72 h; read-out: EC50, effective concentration inhibiting 50% of the virus
With `Cc1cc2c(cc1CN1CC(CO)C(CN3CCCC3)C1)OCO2` (centres unmarked) [Compound 789] the EC50 was 44 µM. `Clc1ccc2c(N3CCN(CCCN4CCN(c5ccnc6cc(Cl)ccc56)CC4)CC3)ccnc2c1` [piperaquine, reference compound] gave an EC50 of 11.6 µM. `OCC1CN(Cc2cc3c(cc2Cl)OCO3)CC1CN1CCCCCC1` (centres unmarked) [Compound 269] was tested, and the EC50 was 53.9 µM. `Cc1cc2c(cc1CN1CC(CO)C(CN3CCN(C)CC3)C1)OCCO2` (centres unmarked) [Compound 782] was tested, and the EC50 was 4.07 µM. Work on `NCCc1ccc(CN2CCC(O)(c3cccc(C(F)(F)F)c3)CC2)cc1` [Compound 188] yielded an EC50 of 17.2 µM. In the case of `Cc1cc2c(cc1CN1CC(CO)C(CN3CCCCCC3)C1)OCCO2` (centres unmarked) [Compound 194], the EC50 is reported as 28.9 µM. For `OC1CCCN(C2CCN(Cc3ncc[nH]3)CC2)C1` (centres unmarked) [Compound 21256088], the EC50 was over 100 µM. For `OC1CN(Cc2cccc3cc[nH]c23)CCN(c2ccncc2)C1` (centres unmarked) [Compound 229], the EC50 was 26.8 µM. For `OCC1CN(Cc2cc3c(cc2Cl)OCO3)CC1CN1CCOCC1` (centres unmarked) [Compound 178], the EC50 was 103 µM. Molecule `CN(C)CCN(C)CC1CN(Cc2ccc3c(c2)OCCO3)CC1CO` (centres unmarked) [Compound 570] has an EC50 of 38.5 µM. `Cc1nc(CN)cc(N2CCC(C(O)c3nccn3C)CC2)n1` (centres unmarked) [Compound 32807865] showed an EC50 of over 100 µM.
